Test system: male rats (Sprague Dawley Crl:SD)
Assay: In vivo MRI imaging of 1, predominantly T1-weighted RARE fast-spin-echo scans
Set-up: species or system rat
Conditions: 0.02 mmol/kg iv; for MRI signal intensity, bladder: baseline (−10 min) 414.3; for MRI signal intensity, skeletal muscle: baseline (−10 min) 432.1; for MRI signal intensity, renal pelvis: baseline (−10 min) 465.7; for MRI signal intensity, renal medulla: baseline (−10 min) 480.8; for MRI signal intensity, liver: baseline (−10 min) 498.6; for MRI signal intensity, renal cortex: baseline (−10 min) 579.1
Protocol: Compound 1 (aq., 12.5 mM) was injected intravenously into 2 male rats (Sprague Dawley Crl:SD, 312-338 g) at a dosage of 0.02 mmol/kg following anaesthesia with 5% isoflurane. Compound 2 (aq., 6.25 mM) was injected intravenously into 1 male rat (Sprague Dawley Crl:SD, 349 g) at a dosage of 0.01 mmol/kg following anaesthesia with 5% isoflurane. Compound 6 (aq., 6.25 mM) was injected intravenously into 1 male rat (Sprague Dawley Crl:SD, 341 g) at a dosage of 0.01 mmol/kg following anaesthesia with 5% isoflurane. Anesthesia was maintained at 2-2.5% isoflurane through a nose cone for the duration of the scans. Fast-spin-echo images were collected for 45 mins. immediately post-injection. For compound 1, the DT1-weighted RARE (Rapid Acquisition Relaxation Enhancement) scans were acquired with an echo time of 10 ms, and a repetition time=respiratory cycle duration (˜1100 ms). Both T1- and T2-weighted scans were collected on compounds 2 and 6.
The in vivo contrast potential of compounds 1, 2 and 6 were studied via the collection of fast-spin-echo images for 30-45 minutes immediately following injection of an aqueous solution of each complex. The dosage chosen for 1 was 0.02 mmol/kg (c=[…]) while the dosage chosen for 2 and 6 was 0.01 mmol/kg (c=6.25 mM). Predominantly T1-weighted scans with some T2-weighting were performed on two rats injected with 1.

[1] = percentage of the initial intensity, first 45 min

## CC1=NCCNCCNCCN=C(C)c2cccc1n2.O.O.[Cl-].[Cl-].[Mn+2] [Compound 1, [MnL1Cl2].2H2O]
  excretion (summary): rapid excretion
  time to appearance in the bladder: ≤ 5 min
2 min after injection
  MRI signal intensity, bladder: 454.3 arbitrary units of voxel intensity
  MRI signal intensity, skeletal muscle: 358.5 arbitrary units of voxel intensity
  MRI signal intensity, renal pelvis: 881.1 arbitrary units of voxel intensity
  MRI signal intensity, renal medulla: 608.9 arbitrary units of voxel intensity
  MRI signal intensity, liver: 458.8 arbitrary units of voxel intensity
  MRI signal intensity, renal cortex: 635.2 arbitrary units of voxel intensity
10 min after injection
  MRI signal intensity, bladder: 1093.1 arbitrary units of voxel intensity
  MRI signal intensity, skeletal muscle: 354.3 arbitrary units of voxel intensity
  MRI signal intensity, renal pelvis: 920.7 arbitrary units of voxel intensity
  MRI signal intensity, renal medulla: 561.8 arbitrary units of voxel intensity
  MRI signal intensity, liver: 436.2 arbitrary units of voxel intensity
  MRI signal intensity, renal cortex: 683.4 arbitrary units of voxel intensity
15 min after injection
  MRI signal intensity, bladder: 1147.9 arbitrary units of voxel intensity
  MRI signal intensity, skeletal muscle: 346.5 arbitrary units of voxel intensity
  MRI signal intensity, renal pelvis: 806.3 arbitrary units of voxel intensity
  MRI signal intensity, renal medulla: 524.4 arbitrary units of voxel intensity
  MRI signal intensity, liver: 410.2 arbitrary units of voxel intensity
  MRI signal intensity, renal cortex: 660.3 arbitrary units of voxel intensity
20 min after injection
  MRI signal intensity, bladder: 1046.4 arbitrary units of voxel intensity
  MRI signal intensity, skeletal muscle: 337.5 arbitrary units of voxel intensity
  MRI signal intensity, renal pelvis: 733.9 arbitrary units of voxel intensity
  MRI signal intensity, renal medulla: 502.9 arbitrary units of voxel intensity
  MRI signal intensity, liver: 424.5 arbitrary units of voxel intensity
  MRI signal intensity, renal cortex: 717.0 arbitrary units of voxel intensity
30 min after injection
  MRI signal intensity, bladder: 970.1 arbitrary units of voxel intensity
  MRI signal intensity, skeletal muscle: 330.6 arbitrary units of voxel intensity
  MRI signal intensity, renal pelvis: 704.7 arbitrary units of voxel intensity
  MRI signal intensity, renal medulla: 512.6 arbitrary units of voxel intensity
  MRI signal intensity, liver: 398.0 arbitrary units of voxel intensity
  MRI signal intensity, renal cortex: 775.4 arbitrary units of voxel intensity
45 min after injection
  MRI signal intensity, bladder: 1030.1 arbitrary units of voxel intensity
  MRI signal intensity, skeletal muscle: 351.0 arbitrary units of voxel intensity
  MRI signal intensity, renal pelvis: 666.1 arbitrary units of voxel intensity
  MRI signal intensity, renal medulla: 520.6 arbitrary units of voxel intensity
  MRI signal intensity, liver: 369.8 arbitrary units of voxel intensity
  MRI signal intensity, renal cortex: 804.1 arbitrary units of voxel intensity
First 45 minutes
  liver signal: gradual liver hypoenhancement
  renal cortical signal: slow increase in the renal cortical signal
[1]
  Max. intensity change, bladder: 177%
  Max. intensity change, liver: −26%
  Max. intensity change, renal cortex: 39%
  Max. intensity change, renal medulla: 27%
  Max. intensity change, renal pelvis: 98%
  Max. intensity change, skeletal muscle: −23%
Scans 3 hours post-injection
  retention in tissues or organs: no evidence of compound 1 being retained by any tissue or organ

Source: patent publication US10377783B2, “Methods and compounds for enhancing contrast in magnetic resonance imaging (MRI)” (priority 2015, dated 2019)
